Source: ChEMBL document CHEMBL4270580, “Syntheses of C-ring modified dehydroabietylamides and their cytotoxic activity” (Eur J Med Chem, 2018)

Key:
FaDu = assay: Cytotoxicity against human FADU cells after 96 hrs by sulforhodamine-B assay; assay type: functional, cell-based
MCF7 = assay: Cytotoxicity against human MCF7 cells after 96 hrs by sulforhodamine-B assay; assay type: functional, cell-based
SW-1736 = assay: Cytotoxicity against human SW1736 cells after 96 hrs by sulforhodamine-B assay; assay type: functional, cell-based
HT-29 = assay: Cytotoxicity against human HT-29 cells after 96 hrs by sulforhodamine-B assay; assay type: functional, cell-based
A2780 = assay: Cytotoxicity against human A2780 cells after 96 hrs by sulforhodamine-B assay; assay type: functional, cell-based
NIH3T3 = assay: Cytotoxicity against mouse NIH/3T3 cells after 96 hrs by sulforhodamine-B assay; assay type: cell-based
[1] = Selectivity index, ratio of EC50 for mouse NIH/3T3 cells to EC50 for human MCF7 cells; assay type: toxicity; settings: NIH/3T3 cells and MCF7 cells, read-out: Ratio EC50
[2] = Homo sapiens, FaDu, 96 h, read-out: EC50
[3] = Homo sapiens, MCF7, 96 h, read-out: EC50
[4] = Homo sapiens, SW-1736, 96 h, read-out: EC50
[5] = Homo sapiens, HT-29, 96 h, read-out: EC50
[6] = Homo sapiens, A2780, 96 h, read-out: EC50
[7] = Mus musculus, NIH3T3, 96 h, read-out: EC50

| Structure (SMILES) | EC50 (FaDu; [2]) [µM] | EC50 (MCF7; [3]) [µM] | EC50 (SW-1736; [4]) [µM] | EC50 (HT-29; [5]) [µM] | EC50 (A2780; [6]) [µM] | EC50 (NIH3T3; [7]) [µM] | selectivity ratio [1] | EC50 (FaDu; fadu) | EC50 (MCF7; mcf7) | EC50 (SW-1736; sw-1736) | EC50 (HT-29; ht-29) | EC50 (A2780; a2780) | EC50 (NIH3T3; nih3t3) |
| --- | --- | --- | --- | --- | --- | --- | --- | --- | --- | --- | --- | --- | --- |
| CC(C)c1cc2c(cc1O)[C@@]1(C)CCC[C@@](C)(CN)[C@@H]1CC2 | 11.5 | 8.9 | 13.6 | 9.5 | 17.3 | 22 | – | – | – | – | – | – | – |
| COc1ccc(C(=O)NC[C@]2(C)CCC[C@]3(C)c4ccc(C(C)C)cc4CC[C@@H]23)cc1 | 17.3 | 4.5 | 11.2 | 10.4 | 9.1 | 22.8 | 8.8 | – | – | – | – | – | – |
| CC(C)c1ccc2c(c1)CC[C@H]1[C@](C)(CNC(=O)c3ccccc3)CCC[C@]21C | > 30 | > 30 | > 30 | > 30 | > 30 | > 30 | – | – | – | – | – | – | – |
| CC(C)c1cc2c(cc1O)[C@@]1(C)CCC[C@@](C)(CNC(=O)c3ccc(O)cc3)[C@@H]1CC2 | > 30 | > 30 | > 30 | > 30 | > 30 | > 30 | – | – | – | – | – | – | – |
| CC(=O)Oc1ccc(C(=O)NC[C@]2(C)CCC[C@]3(C)c4cc(OC(C)=O)c(C(C)C)cc4CC[C@@H]23)cc1 | 20.2 | 10.5 | 17.2 | 11.2 | 17.9 | 21.4 | – | – | – | – | – | – | – |
| CC(=O)Oc1cc2c(cc1C(C)C)CC[C@H]1[C@](C)(CNC(=O)c3ccncc3)CCC[C@]21C | 12.4 | 5.7 | 12.8 | 15.3 | 14.4 | 29.5 | – | – | – | – | – | – | – |
| COc1ccc(C(=O)NC[C@]2(C)CCC[C@]3(C)c4cc(O)c(C(C)C)cc4CC[C@@H]23)cc1 | 20 | 11.7 | 16.1 | 13.5 | 13.2 | 23.2 | – | – | – | – | – | – | – |
| CC(C)c1cc2c(cc1O)[C@@]1(C)CCC[C@@](C)(CNC(=O)CCCC[C@H]3SCC4NC(=O)NC43)[C@@H]1CC2 (some centres undefined) | > 30 | > 30 | > 30 | > 30 | > 30 | > 30 | – | – | – | – | – | – | – |
| CC(C)c1ccc2c(c1)CC[C@H]1[C@](C)(CNC(=O)c3ccc(Cl)cc3)CCC[C@]21C | > 30 | > 30 | > 30 | > 30 | > 30 | > 30 | – | – | – | – | – | – | – |
| COc1ccc(C(=O)NC[C@]2(C)CCC[C@]3(C)c4cc(OC(C)=O)c(C(C)C)cc4CC[C@@H]23)cc1 | – | – | – | – | – | – | – | Nd(Insoluble) | Nd(Insoluble) | Nd(Insoluble) | Nd(Insoluble) | Nd(Insoluble) | Nd(Insoluble) |
| CC(=O)Oc1cc2c(cc1C(C)C)CC[C@H]1[C@](C)(CNC(=O)c3ccc(Cl)cc3)CCC[C@]21C | 14.4 | 6.1 | 15.3 | 11.7 | 5 | > 30 | – | – | – | – | – | – | – |
| CC(C)c1ccc2c(c1)CC[C@H]1[C@](C)(CNC(=O)c3ccc(O)cc3)CCC[C@]21C | 14.1 | 8 | 13 | 8.5 | 8.7 | 6.9 | – | – | – | – | – | – | – |
| CC(=O)Oc1cc2c(cc1C(C)C)CC[C@H]1[C@](C)(CNC(=O)c3ccccc3)CCC[C@]21C | 13.4 | 4.5 | 13.5 | 9 | 8.1 | 17.3 | – | – | – | – | – | – | – |
| CC(C)c1ccc2c(c1)CC[C@H]1[C@](C)(CNC(=O)CCCC[C@H]3SCC4NC(=O)NC43)CCC[C@]21C (some centres undefined) | 24.5 | 11.6 | > 30 | 15.5 | 18.6 | 15.7 | – | – | – | – | – | – | – |
| CC(C)c1cc2c(cc1O)[C@@]1(C)CCC[C@@](C)(CNC(=O)c3ccncc3)[C@@H]1CC2 | 18.8 | 4.3 | 27.3 | 19 | 12.9 | 24.2 | 6.2 | – | – | – | – | – | – |
| CC(C)c1cc2c(cc1O)[C@@]1(C)CCC[C@@](C)(CNC(=O)c3ccccc3)[C@@H]1CC2 | 14.8 | 4.8 | 11.5 | 16.2 | 12.5 | 18.1 | – | – | – | – | – | – | – |
| CC(C)c1ccc2c(c1)CC[C@H]1[C@](C)(CNC(=O)c3ccncc3)CCC[C@]21C | 14.4 | 7.9 | 14.2 | 10.7 | 9.8 | 16.9 | – | – | – | – | – | – | – |
| CC(=O)Oc1cc2c(cc1C(C)C)CC[C@H]1[C@](C)(CNC(=O)CCCC[C@H]3SCC4NC(=O)NC43)CCC[C@]21C (some centres undefined) | > 30 | > 30 | > 30 | > 30 | > 30 | > 30 | – | – | – | – | – | – | – |
| Cc1ccc(C(=O)NC[C@]2(C)CCC[C@]3(C)c4cc(O)c(C(C)C)cc4CC[C@@H]23)cc1 | 12.2 | 8.5 | 7 | 17.2 | 10 | 16.8 | – | – | – | – | – | – | – |
| CC(C)c1cc2c(cc1OC(=O)c1ccccc1)[C@@]1(C)CCC[C@@](C)(CNC(=O)c3ccccc3)[C@@H]1CC2 | > 30 | > 30 | > 30 | > 30 | > 30 | > 30 | – | – | – | – | – | – | – |
| Cc1ccc(C(=O)NC[C@]2(C)CCC[C@]3(C)c4ccc(C(C)C)cc4CC[C@@H]23)cc1 | 18.9 | 10.4 | 14.2 | 22.8 | 12.5 | 13.5 | – | – | – | – | – | – | – |
| CC(=O)Oc1cc2c(cc1C(C)C)CC[C@H]1[C@](C)(CNC(=O)c3ccc(C)cc3)CCC[C@]21C | 12.8 | 11.5 | 10.7 | 26.7 | 19.4 | > 30 | – | – | – | – | – | – | – |
| CC(C)c1cc2c(cc1O)[C@@]1(C)CCC[C@@](C)(CNC(=O)c3ccc(Cl)cc3)[C@@H]1CC2 | 21.9 | 5 | 10.2 | 10.5 | 6.6 | 16 | – | – | – | – | – | – | – |
| CC(=O)Oc1cc2c(cc1C(C)C)CC[C@H]1[C@](C)(CN)CCC[C@]21C | 13.1 | 10.7 | 18.3 | 10.1 | 20 | > 30 | – | – | – | – | – | – | – |
| CC(C)c1ccc2c(c1)CC[C@H]1[C@](C)(CN)CCC[C@]21C | 3.9 | 3 | 4.2 | 2.1 | 3.8 | 2.4 | 0.8 | – | – | – | – | – | – |
| C=C(C)[C@@H]1CC[C@]2(C(=O)O)CC[C@]3(C)[C@H](CC[C@@H]4[C@@]5(C)CC[C@H](O)C(C)(C)[C@@H]5CC[C@]43C)[C@@H]12 [BETULINIC ACID] | 10.7 | 10.6 | 14.8 | 16 | 9.7 | 12.9 | – | – | – | – | – | – | – |
